According to PMC10113987, “A tool for nuclear imaging of the SARS-CoV-2 entry receptor: molecular model and preclinical development of ACE2-selective radiopeptides” (EJNMMI Research, 2023):
Positions of bridges follow the written chain, without caps; N, C: chain ends. Residues, ends and D or L forms follow the SMILES beside them. *: point of attachment. DOTA = O=C(O)CN1CCN(CC(=O)O)CCN(CC(=O)*)CCN(CC(=O)O)CC1; NODAGA = O=C(O)CN1CCN(CC(=O)O)CCN(C(CCC(=O)*)C(=O)O)CC1; Ahx = NCCCCCC(=O)O

What was measured:
[1] = Stability of the radiopeptide formulated in saline (HPLC); type: physicochemical; conditions: for Intact radiopeptide: 0.9% NaCl, room temperature, 20 MBq/nmol, 10 MBq/100 µL
Procedure: The purified [^67Ga]GaCl3 in HCl (~ 0.1 M) was added to a sodium acetate solution (0.5 M, pH 8) to obtain a buffered system of pH ~ 4. After adding the respective peptide (DOTA-DX600, NODAGA-DX600, HBED-CC-DX600 or DOTA-BPP9a) in a quantity to obtain the desired molar activity (5–20 MBq/nmol), the reaction mixture was incubated at 95 °C for 15 min. Quality control was performed using a Merck Hitachi LaChrom HPLC system (Additional file 1). The radiopeptides were used directly for in vitro and in vivo studies without further purification steps. The stability of the radiopeptides (20 MBq/nmol) formulated in 0.9% NaCl (10 MBq/100 µL) was assessed at room temperature (Additional file 1). The highest molar activity used in these studies was 20 MBq/nmol which means that one of 73–74 molecules was labeled with gallium-67. Nevertheless, the labeling efficiency of the DX600-based peptides was assessed using the highest possible molar activity that would still allow for the preparation of the DX600-based radiopeptide at a radiochemical purity of > 95% (Additional file 1).
Methods: The integrity of the radiopeptides (20 MBq/nmol), formulated in 0.9% NaCl (10 MBq/100 µL) and incubated at room temperature, was determined by HPLC using the system described above. The HPLC chromatograms were analyzed by determination of the peak area of the radiolabeled peptide, the released gallium-67, as well as degradation products of unknown structure. The quantity of the intact product was expressed as percentage of the sum of integrated peak areas of the entire chromatogram and set in relation to the original value determined at t = 0, which was set as 100%.

[2] = target: T1, ACE (Homo sapiens, UniProt P12821); assay: ACE-binding affinity (saturation binding on HEK-ACE cells); conditions: on ice, 1 h
T1 construct: host or cells: HEK-293
T1 sequence (P12821 30-1306): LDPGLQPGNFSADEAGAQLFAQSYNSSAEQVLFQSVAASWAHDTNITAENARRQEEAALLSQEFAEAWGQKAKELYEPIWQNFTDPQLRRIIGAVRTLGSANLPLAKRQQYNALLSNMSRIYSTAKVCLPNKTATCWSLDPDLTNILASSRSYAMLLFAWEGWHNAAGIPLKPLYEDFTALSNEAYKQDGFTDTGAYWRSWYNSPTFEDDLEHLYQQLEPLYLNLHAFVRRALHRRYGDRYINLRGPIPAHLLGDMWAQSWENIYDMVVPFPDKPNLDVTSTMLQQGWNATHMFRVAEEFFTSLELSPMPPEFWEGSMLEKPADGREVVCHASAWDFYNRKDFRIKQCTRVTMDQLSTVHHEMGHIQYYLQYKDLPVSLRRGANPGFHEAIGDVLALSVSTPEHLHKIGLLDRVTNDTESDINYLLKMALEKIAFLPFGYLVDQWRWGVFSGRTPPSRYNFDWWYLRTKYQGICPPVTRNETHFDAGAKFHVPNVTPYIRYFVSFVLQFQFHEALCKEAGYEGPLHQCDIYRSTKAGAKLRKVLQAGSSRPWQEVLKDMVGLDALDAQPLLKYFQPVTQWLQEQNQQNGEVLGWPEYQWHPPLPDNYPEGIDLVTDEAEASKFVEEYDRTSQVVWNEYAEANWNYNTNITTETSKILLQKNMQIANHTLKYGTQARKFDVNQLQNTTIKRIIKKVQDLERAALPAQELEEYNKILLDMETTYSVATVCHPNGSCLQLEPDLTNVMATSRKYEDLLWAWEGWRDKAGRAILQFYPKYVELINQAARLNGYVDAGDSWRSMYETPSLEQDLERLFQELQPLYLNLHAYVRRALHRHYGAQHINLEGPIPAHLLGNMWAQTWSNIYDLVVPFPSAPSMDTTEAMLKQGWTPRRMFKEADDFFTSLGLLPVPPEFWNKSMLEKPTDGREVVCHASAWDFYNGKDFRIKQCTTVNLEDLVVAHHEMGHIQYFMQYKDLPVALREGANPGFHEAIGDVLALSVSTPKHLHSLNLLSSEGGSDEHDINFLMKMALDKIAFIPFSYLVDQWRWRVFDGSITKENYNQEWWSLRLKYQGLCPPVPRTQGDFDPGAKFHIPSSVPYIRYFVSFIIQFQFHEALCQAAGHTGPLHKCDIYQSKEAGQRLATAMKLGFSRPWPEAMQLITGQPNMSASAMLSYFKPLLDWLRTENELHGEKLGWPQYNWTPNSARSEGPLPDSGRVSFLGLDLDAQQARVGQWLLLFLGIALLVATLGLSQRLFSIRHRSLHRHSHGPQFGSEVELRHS
Procedure: In order to determine the KD values of the DX600-based radiopeptides and [^67Ga]Ga-DOTA-BPP9a, HEK-ACE2 and HEK-ACE cells were seeded in 48-well-plates allowing adhesion and growth overnight. The cell samples were incubated with increasing concentrations (1‒2000 nM) of the radiopeptides (5 MBq/nmol) on ice. Some of the cell samples were co-incubated with an excess of cyclo-DX600 or lisinopril (20 µM, 10 nmol) to block ACE2 or ACE, respectively, enabling the determination of non-specific binding (Additional file 1). After 1 h incubation, the cells were rinsed with PBS and lysed with NaOH (1 M, 600 µL) to count the activity in a γ-counter. The KD values were determined by plotting specific binding (total binding minus unspecific binding) against the molar concentration of the added radiopeptide. A nonlinear regression analysis was performed using GraphPad Prism software (version 8.3.1).

[3] = In vitro stability in human blood plasma (TLC); type: in vitro ADME; conditions: 37 °C
Procedure: The ^67Ga-labeled DX600-radiopeptides (20 MBq/nmol) were incubated in human and mouse plasma (10 MBq/200 µL), respectively, at 37 °C. Aliquots were taken at variable time points up to 24 h for analysis using reversed phase thin layer chromatography (TLC) with citrate buffer (0.1 M, pH 5.5) as a mobile phase. Images of the TLC plates were obtained using a storage phosphor system (Cyclone Plus, PerkinElmer) and quantified using the OptiQuant software (version 5.0, Bright Instrument Co Ltd., PerkinElmer™) (Supplementary Information).
The radiopeptides were prepared and TLC experiments were performed immediately after radiolabeling by applying the diluted radiopeptides in saline (1 µL; ~0.05 MBq) and [^67Ga]GaCl3 solution (1 µL; ~0.05 MBq) on the TLC plates. The radiopeptides were incubated in mouse or human plasma (10 MBq/200 µL) at 37° C. TLC was performed with an aliquot of the plasma samples at the given timepoints (30 min, 1 h, 3 h and 24 h). The TLC plates were exposed to a phosphor screen followed by development using a storage phosphor system (Cyclone Plus, PerkinElmer). The quantification of the signals was carried out using the OptiQuant software (version 5.0, Bright Instrument Co Ltd., PerkinElmer^TM). The obtained chromatograms were analyzed by determination of the peak area of the radiolabeled peptide, the released gallium-67 as well as degradation products of unknown structure. The quantity of the intact product was expressed as percentage of the sum of integrated peak areas of the entire chromatogram.

[4] = system: FVB mice; assay: In vivo stability in immunocompetent FVB mice (TLC of blood plasma, urine, kidneys); design: species or system mouse; conditions: 1 h p.i.; for Radiometabolites in kidney homogenates: fraction of accumulated activity
Procedure: In order to investigate the stability of the radiopeptides, the ^67Ga-labeled DX600 peptides (20 MBq/nmol) were tested in immunocompetent FVB mice (10 MBq in 100 μL per mouse). Before sacrificing, blood was collected from each mouse 1 h after injection of the radiopeptides. After centrifugation, the blood plasma was analyzed using reversed phase TLC with citrate buffer (0.1 M, pH 5.5) as a mobile phase. The kidneys were collected and processed to investigate the presence of intact radiopeptides and potential metabolites using the same TLC system. The analysis of the chromatograms was performed as described for the in vitro plasma stability (Additional file 1).
Methods: Immunocompetent FVB mice were injected with the DX600-based radiopeptides (n=2). One hour later, urine was collected and blood was sampled from the retrobulbar vein followed by centrifugation (10 min, 200 rcf). A drop of urine and blood plasma was analyzed using the TLC method described for in vitro stability experiments above (reversed phase as stationary phase and citrate buffer pH 5.5 as mobile phase). The data were also confirmed using normal phase TLC. Kidneys of mice were collected, cut into small pieces, homogenized in 200 μL buffer solution (ice-cold methanol containing 0.025% NH4OH) and centrifuged (5 min, 2300 rcf, 4° C) as described by Boss et al.. An aliquot of the supernatant of each sample was developed using the same TLC method as for urine and blood plasma samples. The TLC plates were exposed to a phosphor screen which was afterwards read using a storage phosphor system (Cyclone Plus, PerkinElmer). The quantification of the signals was carried out using the OptiQuant software (version 5.0, Bright Instrument Co Ltd., PerkinElmer^TM). The obtained chromatograms were analyzed by determination of the peak area of the radiolabeled peptide, the released gallium-67 as well as degradation products of unknown structure. The quantity of the intact product was expressed as percentage of the sum of integrated peak areas of the entire chromatogram.

Row | Compound | Degradation products (partial radiolysis) ([1]; saline, 24 h incubation) | Kd [2] | Released gallium-67 in human blood plasma ([3]; 24 h) | Release of gallium-67 from the chelator in blood plasma [4] | Radiometabolites in kidney homogenates [4] | Intact radiopeptide ([1]; 1 h) | Intact radiopeptide ([1]; 3 h) | Intact radiopeptide ([1]; 24 h) | Intact radiopeptide in human blood plasma ([3]; whole incubation period of 24 h)
1 | CC[C@H](C)[C@H](NC(=O)[C@H](CCC(N)=O)NC(=O)[C@@H]1CCCN1C(=O)[C@H](CCCNC(=N)N)NC(=O)[C@@H]1CCCN1C(=O)[C@H](Cc1c[nH]c2ccccc12)NC(=O)[C@H](CCC(=O)O)NC(=O)CCCCCNC(=O)CCCCCNC(=O)CN1CCN(CC(=O)O)CCN(CC(=O)O)CCN(CC(=O)O)CC1)C(=O)N1CCC[C@H]1C(=O)N1CCC[C@H]1C(=O)O [[^67Ga]Ga-DOTA-BPP9a, metal not drawn] ({DOTA-Ahx-Ahx}-EWPRPQIPP-OH) | ~ 11% | 693 ± 354 nM | – | – | – | – | – | – | –
2 | CC(=O)N[C@@H](CCCCNC(=O)CN1CCN(CC(=O)O)CCN(CC(=O)O)CCN(CC(=O)O)CC1)C(=O)NCC(=O)N[C@@H](CC(=O)O)C(=O)N[C@@H](Cc1ccc(O)cc1)C(=O)N[C@@H](CO)C(=O)N[C@@H](Cc1c[nH]cn1)C(=O)N[C@H]1CSSC[C@@H](C(=O)N[C@H](C(=O)N[C@@H](Cc2ccc(O)cc2)C(=O)N2CCC[C@H]2C(=O)N[C@@H](CC(=O)O)C(=O)N2CCC[C@H]2C(=O)N[C@@H](CCC(=O)O)C(=O)NCC(=O)NCC(=O)NCC(N)=O)[C@@H](C)O)NC(=O)[C@H](CCCCN)NC(=O)[C@H](Cc2c[nH]c3ccccc23)NC(=O)[C@H](Cc2c[nH]c3ccccc23)NC(=O)[C@@H]2CCCN2C(=O)[C@H](Cc2ccc(O)cc2)NC(=O)[C@H](Cc2ccc(O)cc2)NC(=O)[C@H](CCCNC(=N)N)NC(=O)[C@H](CC(C)C)NC(=O)[C@@H]2CCCN2C(=O)[C@H](CO)NC1=O [[^67Ga]Ga-DOTA-DX600, metal not drawn] (Ac-K(DOTA)GDYSHCSPLRYYPWWKCTYPDPEGGG-NH2; disulfide 7-18) | – | – | > 30% | 3.5 % of the total activity determined in the blood | ~ 93% | – | – | – | –
3 | CC(=O)N[C@@H](CCCCNC(=O)CCC(C(=O)O)N1CCN(CC(=O)O)CCN(CC(=O)O)CC1)C(=O)NCC(=O)N[C@@H](CC(=O)O)C(=O)N[C@@H](Cc1ccc(O)cc1)C(=O)N[C@@H](CO)C(=O)N[C@@H](Cc1c[nH]cn1)C(=O)N[C@H]1CSSC[C@@H](C(=O)N[C@H](C(=O)N[C@@H](Cc2ccc(O)cc2)C(=O)N2CCC[C@H]2C(=O)N[C@@H](CC(=O)O)C(=O)N2CCC[C@H]2C(=O)N[C@@H](CCC(=O)O)C(=O)NCC(=O)NCC(=O)NCC(N)=O)[C@@H](C)O)NC(=O)[C@H](CCCCN)NC(=O)[C@H](Cc2c[nH]c3ccccc23)NC(=O)[C@H](Cc2c[nH]c3ccccc23)NC(=O)[C@@H]2CCCN2C(=O)[C@H](Cc2ccc(O)cc2)NC(=O)[C@H](Cc2ccc(O)cc2)NC(=O)[C@H](CCCNC(=N)N)NC(=O)[C@H](CC(C)C)NC(=O)[C@@H]2CCCN2C(=O)[C@H](CO)NC1=O (stereo partly shown) [[^67Ga]Ga-NODAGA-DX600, metal not drawn] (Ac-K(NODAGA)GDYSHCSPLRYYPWWKCTYPDPEGGG-NH2; disulfide 7-18) | – | – | – | – | ~ 90% | ≥99% | ≥99% | ≥99% | > 99%
